Experimental data: article PMC9021288 (Nature Communications, 2022)

Test: Human hepatocyte clearance (relay assay)
Details: human, hepatocytes
From the text: Briefly, cryopreserved human primary hepatocytes were thawed and cultured as described above.

Q: For `C[C@@H](CNC(=O)[C@H](O)C(C)(C)CO)NC(=O)c1cc(C#N)ccc1F` [MMV693182], which hepatocyte CLint is on record?
A: 0.2 µL/min/1e6 cells
